The values below come from US12012403B2, “Aryl sulfonyl compounds as CCR6 inhibitors” (CHEMOCENTRYX, INC., priority 2021, dated 2024).

In this experiment the target is T1, human CCR6 (Homo sapiens, UniProt P51684).
T1 construct: expressed in transfected cells; host or cells: Ba/F3 cells (murine pro-B line), hCCR6-transfected, CMV promoter, sodium butyrate induction
T1 sequence (P51684 1-374): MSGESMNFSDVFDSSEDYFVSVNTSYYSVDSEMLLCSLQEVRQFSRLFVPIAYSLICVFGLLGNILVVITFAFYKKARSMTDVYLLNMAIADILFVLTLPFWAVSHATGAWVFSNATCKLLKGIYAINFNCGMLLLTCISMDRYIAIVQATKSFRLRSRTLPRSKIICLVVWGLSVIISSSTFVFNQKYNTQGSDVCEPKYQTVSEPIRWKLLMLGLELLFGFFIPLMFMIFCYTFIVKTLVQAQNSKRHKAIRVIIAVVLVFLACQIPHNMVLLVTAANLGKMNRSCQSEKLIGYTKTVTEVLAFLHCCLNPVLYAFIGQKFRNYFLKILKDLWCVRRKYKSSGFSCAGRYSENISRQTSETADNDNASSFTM
Put plainly: Migration (chemotaxis) assay, hCCR6-transfected Ba/F3 cells toward CCL20. The settings on record: hCCR6-transfected Ba/F3 cells in human serum; recombinant human CCL20 10 nM; 37° C. 45 minutes; read-out: Potency (IC50 value in the migration assay). Format: cell-based. From the text: A chemotaxis assay can be used to determine the efficacy of potential receptor antagonists at blocking the migration mediated through chemokine receptors, such as CCR6. This assay is routinely performed using the ChemoTX® microchamber system with a 5-μm pore-sized polycarbonate membrane. Chemokine receptor-expressing cells are required for such an assay. In this case, Ba/F3 cells (Palacios et al., Nature, 309:126, 1984) transfected with the gene for human CCR6 under control of the CMV promotor were used. To begin such an assay, hCCR6-transfected Ba/F3 cells are first grown for 24 hr in medium supplemented with sodium butyrate, which increases CCR6 transcription via the CMV promotor. The prepared Ba/F3 cells, are collected by centrifugation at 400×g at room temperature, then suspended at 4 million/ml in human serum. The compound being tested is serially diluted from a maximum final concentration of 10 μM (or an equivalent volume of its solvent (DMSO)) and is then added to the cell/serum mixture. Separately, recombinant human CCL20 (MIP-3α/LARC) at its EC50 concentration (10 nM) is placed in the lower wells of the ChemoTX® plate. The 5-μm (pore size) polycarbonate membrane is placed onto the plate, and 20 μL of the cell/compound mixture is transferred onto each well of the membrane. The plates are incubated at 37° C. for 45 minutes, after which the polycarbonate membranes are removed and 5 μl of the DNA-intercalating dye CyQUANT (Invitrogen, Carlsbad, CA) is added to the lower wells. The amount of fluorescence, corresponding to the number of migrated cells, is measured using a Spectrafluor Plus plate reader (TECAN, San Jose, CA).
In the case of `O=C1NC[C@@H]2CCN(c3ccc(S(=O)(=O)N4CCC(Nc5ccc(C(F)(F)F)cn5)CC4)cc3)C[C@H]12` (racemic) [Example 1.169], the IC50 was 100 to 10000 nM.

As for `O=C1CO[C@@H]2CCN(c3ccc(S(=O)(=O)N4CCC(Nc5ccc(C(F)(F)F)cn5)CC4)cc3)C[C@@H]2N1` (racemic) [Example 1.170], the IC50 lay within 100 to 10000 nM.

For `O=S(=O)(c1ccc(N2CCN3C[C@H](O)C[C@H]3C2)cc1)N1CCC(Nc2ccc(C(F)(F)F)cn2)CC1` (racemic) [Example 1.178], the IC50 lay in the range of 100 to 10000 nM.

As to `CN(C)CCn1cc(C#N)c2cc(-c3ccc(S(=O)(=O)N4CCC(Nc5ccc(C(F)(F)F)cn5)CC4)cc3)cnc21` [Example 1.001], the IC50 fell in the range of 5 to 100 nM.

On to `NCCN1C(=O)C2(CC2)c2cc(-c3ccc(S(=O)(=O)N4CCC(Nc5ccc(C(F)(F)F)cn5)CC4)cc3)cnc21` [Example 1.002], for which the IC50 is 5 to 100 nM.

In the case of `N#Cc1cn(CCNC(N)=O)c2ncc(-c3ccc(S(=O)(=O)N4CCC(Nc5ccc(C(F)(F)F)cn5)CC4)cc3)cc12` [Example 1.003], the IC50 is below 5 nM.

Turning to `CC(C)(C)OC(=O)NCCN1C(=O)C2(CC2)c2cc(-c3ccc(S(=O)(=O)N4CCC(Nc5ccc(C(F)(F)F)cn5)CC4)cc3)cnc21` [Example 1.004], the IC50 fell in the range of 5 to 100 nM.

Consider `NC(=O)c1cc(-c2ccc(S(=O)(=O)N3CCC(Nc4ccc(C(F)(F)F)cn4)CC3)cc2)cc2c1NC(=O)C2` [Example 1.005], for which the IC50 was below 5 nM.

Regarding `CN1CCC2(CC1)C(=O)Nc1ccc(-c3ccc(S(=O)(=O)N4CCC(Nc5ccc(C(F)(F)F)cn5)CC4)cc3)cc12` [Example 1.006], the IC50 lay within 100 to 10000 nM.

Regarding `O=C1Cc2ccc(-c3ccc(S(=O)(=O)N4CCC(Nc5ccc(C(F)(F)F)cn5)CC4)cc3)cc2CN1` [Example 1.007], the IC50 fell in the range of 5 to 100 nM.

Consider `O=C1Cc2cc(-c3ccc(S(=O)(=O)N4CCC(Nc5ccc(C(F)(F)F)cn5)CC4)cc3)cc(C(=O)O)c2N1` [Example 1.008], for which the IC50 was 100 to 10000 nM.

Regarding `CC1(C)NC(=O)c2ncc(-c3ccc(S(=O)(=O)N4CCC(Nc5ccc(C(F)(F)F)cn5)CC4)cc3)cc21` [Example 1.009], the IC50 is below 5 nM.

On to `O=C1NCc2ncc(-c3ccc(S(=O)(=O)N4CCC(Nc5ccc(C(F)(F)F)cn5)CC4)cc3)cc21` [Example 1.010], for which the IC50 was in the range of 5 to 100 nM.

With `CC(=O)NCCn1cc(C#N)c2cc(-c3ccc(S(=O)(=O)N4CCC(Nc5ccc(C(F)(F)F)cn5)CC4)cc3)cnc21` [Example 1.011], the IC50 is below 5 nM.

As to `O=C1Cc2cc(-c3ccc(S(=O)(=O)N4CCC(Nc5ccc(C(F)(F)F)cn5)CC4)cc3)ccc2CN1` [Example 1.012], the IC50 was below 5 nM.

Regarding `N#Cc1cn(CCN)c2ncc(-c3ccc(S(=O)(=O)N4CCC(Nc5ccc(C(F)(F)F)cn5)CC4)cc3)cc12` [Example 1.013], the IC50 is 5 to 100 nM.

For the compound `CC(C)(C)OC(=O)NCCn1cc(C#N)c2cc(-c3ccc(S(=O)(=O)N4CCC(Nc5ccc(C(F)(F)F)cn5)CC4)cc3)cnc21` [Example 1.014], the IC50 was below 5 nM.

Consider `Nc1nc(=O)c2cc(-c3ccc(S(=O)(=O)N4CCC(Nc5ccc(C(F)(F)F)cn5)CC4)cc3)ccc2[nH]1` [Example 1.015], for which the IC50 is below 5 nM.

With `Nc1nnc2ccc(-c3ccc(S(=O)(=O)N4CCC(Nc5ccc(C(F)(F)F)cn5)CC4)cc3)cn12` [Example 1.016], the IC50 is below 5 nM.

As for `Nc1n[nH]c2ncc(-c3ccc(S(=O)(=O)N4CCC(Nc5ccc(C(F)(F)F)cn5)CC4)cc3)nc12` [Example 1.017], the IC50 was in the range of 5 to 100 nM.

As to `Cc1cc(S(=O)(=O)N2CCC(Nc3ccc(C(F)(F)F)cn3)CC2)ccc1-c1ccc2c(c1)CC(=O)N2` [Example 1.018], the IC50 is 100 to 10000 nM.

On to `CC1(C)Oc2cc(-c3ccc(S(=O)(=O)N4CCC(Nc5ccc(C(F)(F)F)cn5)CC4)cc3)ccc2NC1=O` [Example 1.019], for which the IC50 is 5 to 100 nM.

Regarding `O=C1N(CCO)c2ncc(-c3ccc(S(=O)(=O)N4CCC(Nc5ccc(C(F)(F)F)cn5)CC4)cc3)cc2C12CCOCC2` [Example 1.020], the IC50 lay within 5 to 100 nM.

`O=C1c2ccc(-c3ccc(S(=O)(=O)N4CCC(Nc5ccc(C(F)(F)F)cn5)CC4)cc3)cc2CN1CCO` [Example 1.021]: the IC50 fell in the range of 5 to 100 nM.

`O=C1Cc2ncc(-c3ccc(S(=O)(=O)N4CCC(Nc5ccc(C(F)(F)F)cn5)CC4)cc3)cc2N1` [Example 1.022]: the IC50 was 5 to 100 nM.

As for `Cc1c(-c2ccc(S(=O)(=O)N3CCC(Nc4ccc(C(F)(F)F)cn4)CC3)cc2)cnc2[nH]ccc12` [Example 1.023], the IC50 is below 5 nM.

For `Cc1nc2[nH]ccc2cc1-c1ccc(S(=O)(=O)N2CCC(Nc3ccc(C(F)(F)F)cn3)CC2)cc1` [Example 1.024], the IC50 was below 5 nM.

With `NC(=O)N1CCC2(CC1)C(=O)Nc1ccc(-c3ccc(S(=O)(=O)N4CCC(Nc5ccc(C(F)(F)F)cn5)CC4)cc3)cc12` [Example 1.025], the IC50 lay within 5 to 100 nM.

As to `CC(=O)N1CCC2(CC1)C(=O)Nc1ccc(-c3ccc(S(=O)(=O)N4CCC(Nc5ccc(C(F)(F)F)cn5)CC4)cc3)cc12` [Example 1.026], the IC50 is 5 to 100 nM.

For `COC(=O)c1cc(-c2ccc(S(=O)(=O)N3CCC(Nc4ccc(C(F)(F)F)cn4)CC3)cc2)cc2c1NC(=O)C2` [Example 1.027], the IC50 was below 5 nM.

As for `O=C1Nc2ccc(-c3ccc(S(=O)(=O)N4CCC(Nc5ccc(C(F)(F)F)cn5)CC4)cc3)cc2C12CCNCC2` [Example 1.028], the IC50 lay within 5 to 100 nM.

For `N#Cc1cn(CCO)c2ncc(-c3ccc(S(=O)(=O)N4CCC(Nc5ccc(C(F)(F)F)cn5)CC4)cc3)cc12` [Example 1.029], the IC50 was below 5 nM.

`O=S(=O)(c1ccc(-c2cnc3[nH]ccc3c2F)cc1)N1CCC(Nc2ccc(C(F)(F)F)cn2)CC1` [Example 1.030]: the IC50 was below 5 nM.

`CC1(C)Oc2ccc(-c3ccc(S(=O)(=O)N4CCC(Nc5ccc(C(F)(F)F)cn5)CC4)cc3)cc2NC1=O` [Example 1.031]: the IC50 was in the range of 5 to 100 nM.

For `O=S(=O)(c1ccc(-c2ccc3c(c2)OCCO3)cc1)N1CCC(Nc2ccc(C(F)(F)F)cn2)CC1` [Example 1.032], the IC50 fell in the range of 100 to 10000 nM.

In the case of `O=C1c2cc(-c3ccc(S(=O)(=O)N4CCC(Nc5ccc(C(F)(F)F)cn5)CC4)cc3)ccc2CN1CCO` [Example 1.033], the IC50 was below 5 nM.

In the case of `O=S(=O)(c1ccc(-c2ccc3c(c2)C2(CCOCC2)CN3)cc1)N1CCC(Nc2ccc(C(F)(F)F)cn2)CC1` [Example 1.034], the IC50 is 5 to 100 nM.

As for `O=S(=O)(c1ccc(-c2ccc3c(c2)NCCO3)cc1)N1CCC(Nc2ccc(C(F)(F)F)cn2)CC1` [Example 1.035], the IC50 was 5 to 100 nM.

Consider `O=C1Nc2ccc(-c3ccc(S(=O)(=O)N4CCC(Nc5ccc(C(F)(F)F)cn5)CC4)cc3)cc2C12CCOCC2` [Example 1.036], for which the IC50 was below 5 nM.

`CC(C)(C)[Si](C)(C)OCCN1Cc2ccc(-c3ccc(S(=O)(=O)N4CCC(Nc5ccc(C(F)(F)F)cn5)CC4)cc3)cc2C1=O` [Example 1.038]: the IC50 was in the range of 5 to 100 nM.

Take `N#Cc1cn(CC(N)=O)c2ncc(-c3ccc(S(=O)(=O)N4CCC(Nc5ccc(C(F)(F)F)cn5)CC4)cc3)cc12` [Example 1.039]: the IC50 is below 5 nM.

Regarding `NC(=O)CN1Cc2ccc(-c3ccc(S(=O)(=O)N4CCC(Nc5ccc(C(F)(F)F)cn5)CC4)cc3)cc2C1=O` [Example 1.040], the IC50 fell in the range of 5 to 100 nM.

In the case of `O=c1[nH]c2ccc(-c3ccc(S(=O)(=O)N4CCC(Nc5ccc(C(F)(F)F)cn5)CC4)cc3)cc2n1C1COC1` [Example 1.041], the IC50 fell in the range of 5 to 100 nM.

Consider `O=S(=O)(c1ccc(-c2cc3cc[nH]c3nc2F)cc1)N1CCC(Nc2ccc(C(F)(F)F)cn2)CC1` [Example 1.042], for which the IC50 lay within 5 to 100 nM.

For `O=C1Cc2cc(-c3ccc(S(=O)(=O)N4CCC(Nc5ccc(C(F)(F)F)cn5)CC4)cc3)ncc2N1` [Example 1.043], the IC50 was 100 to 10000 nM.

In the case of `CC(C)(O)OC(=O)N1CCC2(CC1)C(=O)Nc1ccc(-c3ccc(S(=O)(=O)N4CCC(Nc5ccc(C(F)(F)F)cn5)CC4)cc3)cc12` [Example 1.044], the IC50 was in the range of 5 to 100 nM.

For the compound `COc1cc(-c2ccc(S(=O)(=O)N3CCC(Nc4ccc(C(F)(F)F)cn4)CC3)cc2)cc2c1NC(=O)C2` [Example 1.045], the IC50 is 5 to 100 nM.

For `Cn1nc(N)c2cc(-c3ccc(S(=O)(=O)N4CCC(Nc5ccc(C(F)(F)F)cn5)CC4)cc3)ccc21` [Example 1.046], the IC50 is below 5 nM.
